{"source": "PubChem BioAssay AID812", "about": "(SRMLSC, 2007)", "note": "Active and inactive are the calls of the source. The rule behind the calls is not given here."}
{"tested_on": "Saccharomyces cerevisiae lifespan extension, no nicotinamide", "assay": "yeast lifespan extension without nicotinamide, confirmation, yeast lifespan extension project, S. cerevisiae (AID 812);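 note: growth read as optical density after 42 hours of incubation at 30C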"}
{"molecule": "CCOc1ccc(/C=C/C(=O)c2c(O)c3ccccc3oc2=O)cc1", "EC50": "> 40 µM (inactive)"}
{"molecule": "COc1ccccc1C(=O)Oc1ccc2c(c1)O/C(=C\\c1ccncc1)C2=O", "EC50": "> 40 µM (inactive)"}
{"molecule": "CC(=O)Nc1ccc(C(=O)CSc2nnc(-c3ccc(O)cc3)n2CC2CCCO2)cc1", "note": "(configuration not stated)", "EC50": "> 40 µM (inactive)"}
{"molecule": "O=C1C(Cl)=C(Nc2ccccc2O)C(=O)N1CCc1ccccc1", "EC50": "> 40 µM (inactive)"}
{"molecule": "CC(C)Cc1nn2c(=O)cc(O)nc2s1", "EC50": "> 40 µM (inactive)"}
{"molecule": "Cc1cc(C=C2C(=O)N(C)C(=S)N(C)C2=O)c(C)n1-c1cccnc1", "EC50": "> 40 µM (inactive)"}
{"molecule": "COC(=O)c1cc(=O)n(-c2ccccc2)c(=Nc2ccccc2)s1", "EC50": "> 40 µM (inactive)"}
{"molecule": "Cc1nc2ccccc2n1-c1ccccc1", "EC50": "> 40 µM (inactive)"}
{"molecule": "O=C(O)c1cccc2c1C(=O)N(C1CCCCC1)C2", "EC50": "> 40 µM (inactive)"}
{"molecule": "C[C@]12CC[C@@H]3c4ccc(O)cc4CC[C@H]3[C@@H]1CC[C@@H]2OC(=O)CCC(=O)O", "EC50": "> 40 µM (inactive)"}
{"molecule": "O=Cc1ccccc1OS(=O)(=O)c1ccccc1", "EC50": "> 40 µM (inactive)"}
{"molecule": "CSC1=NSC2=NC(=O)/C(=C\\c3cccs3)C(=N)N12", "EC50": "> 40 µM (inactive)"}
{"molecule": "Cc1ccccc1Oc1cc(-n2ncc(Cl)c(Cl)c2=O)ncn1", "EC50": "> 40 µM (inactive)"}
{"molecule": "Oc1ccc2ccccc2c1/C=N/c1nccs1", "EC50": "> 40 µM (inactive)"}
{"molecule": "O=C(NC(=S)NNC(=O)c1ccc(Cl)cc1Cl)c1cccnc1", "EC50": "> 40 µM (inactive)"}
{"molecule": "COc1ccc(N(C(=O)C(C)C)S(=O)(=O)c2ccc(Cl)cc2)cc1", "EC50": "> 40 µM (inactive)"}
{"molecule": "O=C1CC(c2ccccc2)CC(O)=C1C=NCCN1CCNCC1", "note": "(configuration not stated)", "EC50": "> 40 µM (inactive)"}
{"molecule": "Nc1cccc2c1C(=O)N(C(=O)c1ccc(Cl)c(S(=O)(=O)N3CCCCCC3)c1)C2=O", "EC50": "> 40 µM (inactive)"}
{"molecule": "CN1CCC2(CC1)C(C#N)=C(N)NC(S)=C2C#N", "EC50": "> 40 µM (inactive)"}
{"molecule": "CC(=O)C(C(C)=O)c1c(Cl)c(O)c(O)c2c(C(=O)c3ccccc3)coc12", "EC50": "> 40 µM (inactive)"}
{"molecule": "C=C(C(=O)c1ccccc1)C(C)CC(=O)c1ccccc1", "note": "(configuration not stated)", "EC50": "> 40 µM (inactive)"}
{"molecule": "CC(=O)Nc1c(O)nc(SCc2ccccc2C#N)[nH]c1=O", "EC50": "> 40 µM (inactive)"}
{"molecule": "O=C(Nc1nccs1)c1ccc2c(=O)n3c(nc2c1)CCCCC3", "EC50": "> 40 µM (inactive)"}
{"molecule": "COc1ccc(/C=C(/C(=O)c2ccc(Cl)cc2Cl)n2cncn2)cc1", "EC50": "> 40 µM (inactive)"}
{"molecule": "CCCCSc1nc(O)c(C2OC(=O)c3c2ccc(OC)c3OC)c(=O)n1C", "note": "(configuration not stated)", "EC50": "> 40 µM (inactive)"}
{"molecule": "CC(C)n1c(-c2ccccc2F)n[nH]c1=S", "EC50": "> 40 µM (inactive)"}
{"molecule": "CS(=O)(=O)c1nc(-c2cccs2)cc(C(F)(F)F)n1", "EC50": "> 40 µM (inactive)"}
{"molecule": "COc1ccc(/C=C(\\C#N)C(=O)N2CCOCC2)cc1Br", "EC50": "> 40 µM (inactive)"}
{"molecule": "CCCCC(=Nc1ccccc1OC)C1=C(O)CC(c2ccccc2)CC1=O", "note": "(configuration not stated)", "EC50": "> 40 µM (inactive)"}
{"molecule": "COc1ccc(OC)c(C2C(C(C)=O)=C(O)C(=O)N2Cc2cccnc2)c1", "note": "(configuration not stated)", "EC50": "> 40 µM (inactive)"}
{"molecule": "CCOC(=O)/C(=C\\c1cn(C)c2ccccc12)[N+](=O)[O-]", "EC50": "> 40 µM (inactive)"}
{"molecule": "CCc1cc2c(=O)c(Oc3ccccc3)c(C)oc2cc1O", "EC50": "> 40 µM (inactive)"}
{"molecule": "O=S1(=O)C=C(Sc2nnc(-c3ccccc3)o2)c2ccccc21", "EC50": "> 40 µM (inactive)"}
{"molecule": "O=C1Nc2ccccc2C12OCC1(CO2)COC2(OC1)C(=O)Nc1ccccc12", "note": "(configuration not stated)", "EC50": "> 40 µM (inactive)"}
{"molecule": "Cc1ccc(S(=O)(=O)N[C@@H](Cc2ccccc2)C(=O)CCl)cc1", "EC50": "> 40 µM (inactive)"}
{"molecule": "COC(=O)C1=C(C(=O)OC)C(c2cc(Br)ccc2O)c2sc(=O)[nH]c2S1", "note": "(configuration not stated)", "EC50": "> 40 µM (inactive)"}
{"molecule": "O=[N+]([O-])c1cc(S(=O)(=O)N2CCCCCC2)ccc1F", "EC50": "> 40 µM (inactive)"}
{"molecule": "CCSc1nnc(NC(=O)CSc2nc(C)cc(C)n2)s1", "EC50": "> 40 µM (inactive)"}
{"molecule": "O=C(COc1ccc2ccccc2c1)Nc1cccc(C(=O)Nc2ccccc2C(=O)O)c1", "EC50": "> 40 µM (inactive)"}
{"molecule": "Cc1ccc(C(=O)NNC(=S)NC(=O)c2ccc(Cl)cc2)cc1", "EC50": "> 40 µM (inactive)"}
{"molecule": "O=[N+]([O-])c1cc2oc3c(c2c(C=NCc2ccncc2)c1O)CCCC3", "EC50": "> 40 µM (inactive)"}
{"molecule": "O=C(CS(=O)c1ccc(C(F)(F)F)cc1[N+](=O)[O-])Oc1ccccc1", "note": "(configuration not stated)", "EC50": "> 40 µM (inactive)"}
{"molecule": "Oc1ccc(NCc2ccccc2OCc2ccccc2F)cc1", "EC50": "> 40 µM (inactive)"}
{"molecule": "CCC(C)OC(=O)C1C(c2ccccc2)C(C(=O)O)C1c1ccccc1", "note": "(configuration not stated)", "EC50": "> 40 µM (inactive)"}
{"molecule": "CCCC[n+]1c(-c2ccc(Cl)cc2Cl)csc1Nc1ccccc1", "EC50": "> 40 µM (inactive)"}
{"molecule": "O=C(CCN1CCCCCC1)Nc1ccc(F)cc1", "EC50": "> 40 µM (inactive)"}
{"molecule": "O=C1C(=C(O)c2ccccc2)C(=O)c2ccccc21", "EC50": "> 40 µM (inactive)"}
{"molecule": "O=C(Nc1ccc(Br)cn1)c1cccc(-c2cc3ccccc3oc2=O)c1", "EC50": "> 40 µM (inactive)"}
{"molecule": "COc1ccc(/C=N/NC(=O)c2csc(-n3nc(C)cc3C(F)(F)F)n2)cc1", "EC50": "> 40 µM (inactive)"}
{"molecule": "CC1=C(C#N)C2C(/C1=N/O)C2(C)C", "note": "(configuration not stated)", "EC50": "> 40 µM (inactive)"}
{"molecule": "CCn1c(=O)c2ccccc2n2c(SCC(=O)N3CCCc4ccccc43)nnc12", "EC50": "> 40 µM (inactive)"}
{"molecule": "CSc1ccc(S(=O)(=O)NCc2ccc(Cl)cc2Cl)cc1", "EC50": "> 40 µM (inactive)"}
{"molecule": "CCOC(=O)Cc1csc(NC(=O)c2c(O)c3ccccc3n(CC(C)C)c2=O)n1", "EC50": "> 40 µM (inactive)"}
{"molecule": "Oc1ccc2ccccc2c1C=Nc1ccc(N2CCOCC2)cc1", "EC50": "> 40 µM (inactive)"}
{"molecule": "CCOc1ccc(C2=NNC(c3cccs3)=Nc3ccc(OCC)cc32)cc1", "EC50": "> 40 µM (inactive)"}
{"molecule": "CCn1ccc(C(=O)Nc2ccc(S(=O)(=O)Nc3ccccc3OC)cc2)n1", "EC50": "> 40 µM (inactive)"}
{"molecule": "O=c1c2c3c(sc2ncn1/N=C/c1ccc([N+](=O)[O-])o1)CCCC3", "EC50": "> 40 µM (inactive)"}
{"molecule": "CC(C)=C1C(=O)NN(c2ccc(C)c(Cl)c2)C1=O", "EC50": "> 40 µM (inactive)"}
{"molecule": "CC1(C)CC(=O)C(C(=O)Cc2ccccc2[N+](=O)[O-])C(=O)C1", "EC50": "> 40 µM (inactive)"}
{"molecule": "CCNCCNC(=O)c1c(O)c2cccc3c2n(c1=O)CCC3", "EC50": "> 40 µM (inactive)"}
{"molecule": "c1cncc(-c2nn[nH]n2)c1", "EC50": "> 40 µM (inactive)"}
{"molecule": "CCCCCC(=O)N1CCN(CCN=CC2=C(O)CC(c3ccc(OC)c(OC)c3)CC2=O)CC1", "note": "(configuration not stated)", "EC50": "> 40 µM (inactive)"}
{"molecule": "CCn1cc(C(=O)O)c(=O)c2ccc(C)nc21", "EC50": "> 40 µM (inactive)"}
{"molecule": "CCOc1ccc(NCc2nc3ccccc3n2CCOc2ccccc2)cc1", "EC50": "> 40 µM (inactive)"}
{"molecule": "COc1ccccc1-c1c(C)oc2cc(OC(=O)c3ccco3)ccc2c1=O", "EC50": "> 40 µM (inactive)"}
{"molecule": "O=C1/C(=C\\c2cccnc2)CN(Cc2ccccc2)C/C1=C\\c1cccnc1", "EC50": "> 40 µM (inactive)"}
{"molecule": "CN1C(=O)C(Cl)(Cl)C(=O)c2ccccc21", "EC50": "> 40 µM (inactive)"}
{"molecule": "CCCCSc1[nH]c(=O)c(C(=O)OCC)cc1C#N", "EC50": "> 40 µM (inactive)"}
{"molecule": "COc1cccc(CSc2nc3ccccc3cc2C=O)c1", "EC50": "> 40 µM (inactive)"}
{"molecule": "CCCc1[nH]nc2c1C(c1ccc(Br)s1)C(C#N)=C(N)O2", "note": "(configuration not stated)", "EC50": "> 40 µM (inactive)"}
{"molecule": "CCOC(=O)CCCNC(=O)COc1ccccc1C#N", "EC50": "> 40 µM (inactive)"}
{"molecule": "CCCCC(CC)Cn1c2nc3ccccc3nc2c2c(=N)oc(C)nc21", "note": "(configuration not stated)", "EC50": "> 40 µM (inactive)"}
{"molecule": "CCOC(=O)CCS(=O)(=O)c1nc(-c2ccccc2)cc(C(F)(F)F)n1", "EC50": "> 40 µM (inactive)"}
{"molecule": "O=C1OC2(CCCCC2)OC(=O)C1=CNc1nc2ccccc2s1", "EC50": "> 40 µM (inactive)"}
{"molecule": "CC(C)c1ccc2occ(-c3nn[nH]n3)c(=O)c2c1", "EC50": "> 40 µM (inactive)"}
{"molecule": "CCCC(=O)C1C(=O)CC(CC(C)SCC)CC1=O", "note": "(configuration not stated)", "EC50": "> 40 µM (inactive)"}
{"molecule": "CCOC(=O)c1ccc2c(c1)n(CCO)c(C)[n+]2CC", "EC50": "> 40 µM (inactive)"}
{"molecule": "Cc1nn(-c2c(Cl)cc(Cl)cc2Cl)c(=O)c2ccccc12", "EC50": "> 40 µM (inactive)"}
{"molecule": "Cc1cc(C)n2cc(CSc3nnc(N)s3)nc2n1", "EC50": "> 40 µM (inactive)"}
{"molecule": "COc1cccc(C2CC3C(=O)C=CC2N3Cc2ccccc2)c1", "note": "(configuration not stated)", "EC50": "> 40 µM (inactive)"}
{"molecule": "Cc1cc(C(=O)CN2C(=O)NC(C)(CC(C)C)C2=O)c(C)n1-c1ccc2c(c1)OCO2", "note": "(configuration not stated)", "EC50": "> 40 µM (inactive)"}
{"molecule": "COC(=O)c1sc2ncn(-n3c(C)ccc3C)c(=O)c2c1C", "EC50": "> 40 µM (inactive)"}
